From ChEMBL document CHEMBL1145724, “Cyclic amine sulfonamides as linkers in the design and synthesis of novel human beta(3) adrenergic receptor agonists” (Bioorg Med Chem Lett, 2003)

Tests used:
[1] = molecular target: T1, Beta-3 adrenergic receptor (Homo sapiens, UniProt P13945); assay: Agonistic activity against cloned human beta3-AR (beta-3-adrenergic receptor) in CHO cells; format: functional, cell-based
Target sequence in this assay (P13945 whole entry): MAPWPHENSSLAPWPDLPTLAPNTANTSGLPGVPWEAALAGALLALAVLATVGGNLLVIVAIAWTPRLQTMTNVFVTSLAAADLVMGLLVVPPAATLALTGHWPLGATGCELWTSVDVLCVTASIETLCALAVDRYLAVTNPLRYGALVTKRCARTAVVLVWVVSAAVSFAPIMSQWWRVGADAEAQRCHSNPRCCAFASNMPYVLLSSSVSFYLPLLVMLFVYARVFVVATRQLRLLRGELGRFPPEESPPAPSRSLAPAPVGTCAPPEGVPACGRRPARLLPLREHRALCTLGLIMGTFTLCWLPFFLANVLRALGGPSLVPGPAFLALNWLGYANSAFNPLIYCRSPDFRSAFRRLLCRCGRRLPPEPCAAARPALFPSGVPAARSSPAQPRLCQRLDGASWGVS

[2] = molecular target: Beta-2 adrenergic receptor (Homo sapiens, UniProt P07550); assay: Agonistic activity against cloned human […] (beta-2-adrenergic receptor) in CHO cells; format: functional, cell-based
[3] = molecular target: T2, Beta-1 adrenergic receptor (Homo sapiens, UniProt P08588); assay: Agonistic activity against cloned human beta1-AR (beta-1-adrenergic receptor) in CHO cells; format: functional, cell-based
Target sequence in this assay (P08588 whole entry): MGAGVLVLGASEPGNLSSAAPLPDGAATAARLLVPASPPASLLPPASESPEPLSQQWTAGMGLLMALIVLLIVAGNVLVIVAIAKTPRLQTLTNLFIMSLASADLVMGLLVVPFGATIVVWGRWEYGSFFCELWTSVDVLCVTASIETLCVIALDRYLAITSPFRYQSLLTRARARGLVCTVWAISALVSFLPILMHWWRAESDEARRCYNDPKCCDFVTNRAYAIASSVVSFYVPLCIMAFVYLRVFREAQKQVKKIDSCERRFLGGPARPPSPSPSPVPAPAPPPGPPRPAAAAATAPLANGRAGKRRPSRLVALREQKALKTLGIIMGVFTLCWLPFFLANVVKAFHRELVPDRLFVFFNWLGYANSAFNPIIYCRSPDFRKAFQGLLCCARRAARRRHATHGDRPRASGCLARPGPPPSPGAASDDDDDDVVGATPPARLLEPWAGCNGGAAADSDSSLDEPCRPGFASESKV

[4] = molecular target: T1, Beta-3 adrenergic receptor; assay: Intrinsic activity against cloned human beta3-AR was measured as fractions of the maximal response
Target sequence in this assay (P13945 whole entry, looked up): as the sequence (P13945 whole entry) above

[5] = molecular target: T2, Beta-1 adrenergic receptor; assay: Intrinsic activity against cloned human beta1-AR was measured as fractions of the maximal response
Target sequence in this assay (P08588 whole entry, looked up): as the sequence (P08588 whole entry) above

Chain of Beta-2 adrenergic receptor (P07550 whole entry): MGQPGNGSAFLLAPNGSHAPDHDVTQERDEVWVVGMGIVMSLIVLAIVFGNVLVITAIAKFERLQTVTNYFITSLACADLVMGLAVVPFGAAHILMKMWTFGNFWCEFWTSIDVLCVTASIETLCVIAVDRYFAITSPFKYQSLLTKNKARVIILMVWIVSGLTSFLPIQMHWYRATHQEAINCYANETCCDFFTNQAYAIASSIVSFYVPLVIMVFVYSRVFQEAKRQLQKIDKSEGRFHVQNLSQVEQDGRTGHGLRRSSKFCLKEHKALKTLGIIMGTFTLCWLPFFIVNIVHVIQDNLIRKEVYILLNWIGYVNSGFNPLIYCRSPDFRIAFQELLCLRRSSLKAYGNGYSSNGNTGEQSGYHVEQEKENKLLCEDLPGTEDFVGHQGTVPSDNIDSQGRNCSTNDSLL

| Compound | EC50 [1] [nM] | EC50 [2] [nM] | EC50 [3] [nM] | Intrinsic activity [4] | Intrinsic activity [5] |
| --- | --- | --- | --- | --- | --- |
| COc1ccc(S(=O)(=O)N2CCC(NC[C@H](O)COc3cccc4[nH]c(=O)[nH]c34)CC2)cc1OC | 90 | > 100000 | > 100000 |  |  |
| O=c1[nH]c2cccc(OC[C@@H](O)CNC3CCN(S(=O)(=O)c4cccc5nsnc45)CC3)c2[nH]1 | 850 |  |  |  |  |
| CCCCOc1ccc(S(=O)(=O)N2CC(NC[C@H](O)c3ccc(O)c(NS(C)(=O)=O)c3)C2)cc1 | 1100 |  |  | 0.78 |  |
| CS(=O)(=O)Nc1cc([C@@H](O)CNC2CCN(S(=O)(=O)c3ccc4oc5ccccc5c4c3)CC2)ccc1O | 120 |  |  | 0.88 |  |
| CCCCCCNC(=O)Nc1ccc(S(=O)(=O)N2CCC(NC[C@H](O)COc3cccc4[nH]c(O)nc34)CC2)cc1 |  |  |  | 0.74 |  |
| CCCCCCNC(=O)Nc1ccc(S(=O)(=O)N2CCC(NC[C@H](O)c3ccc(O)c(NS(C)(=O)=O)c3)CC2)cc1 | 5 | 920 | 12 | 0.82 | 0.66 |
| COc1ccc(S(=O)(=O)N2CCC(NC[C@H](O)COc3ccc(O)cc3)CC2)cc1 | 55 | > 100000 | 10300 | 0.74 | 0.46 |
| O=S(=O)(c1cccc2nsnc12)N1CCC(NC[C@H](O)COc2cccc3[nH]c(O)nc23)CC1 |  |  |  | 0.75 |  |
| CCCCOc1ccc(S(=O)(=O)N2CC(NC[C@H](O)c3ccc(O)cc3)C2)cc1 | 30 | 920 | 1600 | 0.82 | 0.49 |
| O=S(=O)(c1ccc2oc3ccccc3c2c1)N1CCC(NC[C@H](O)COc2cccc3[nH]c(O)nc23)CC1 |  |  |  | 0.64 |  |
| CCCCCCNC(=O)Nc1ccc(S(=O)(=O)N2CCC(NC[C@H](O)COc3ccc(O)cc3)CC2)cc1 | > 2000 |  |  |  |  |
| COc1ccc(S(=O)(=O)N2CCC(NC[C@H](O)COc3cccc4[nH]c(O)nc34)CC2)cc1OC |  |  |  | 0.87 | 0.33 |
| CCCCCCNC(=O)Nc1ccc(S(=O)(=O)N2CCC(NC[C@H](O)COc3cccc4[nH]c(=O)[nH]c34)CC2)cc1 | 36 |  |  |  |  |

The remaining lines, values ahead:

| EC50 [1] [nM] | EC50 [2] [nM] | EC50 [3] [nM] | Intrinsic activity [4] | Intrinsic activity [5] | Compound |
| --- | --- | --- | --- | --- | --- |
| 120 | > 100000 | > 100000 |  |  | COc1ccc(S(=O)(=O)N2CCC(NC[C@H](O)COc3cccc4[nH]c(=O)[nH]c34)CC2)cc1 |
| > 2000 |  |  |  |  | CCCCOc1ccc(S(=O)(=O)N2CCC(NC[C@H](O)COc3cccc4[nH]c5ccccc5c34)C2)cc1 (stereo not given in full) |
|  | > 100000 | 100000 | 0.88 | 0.11 | COc1ccc(S(=O)(=O)N2CCC(NC[C@H](O)COc3cccc4[nH]c5ccccc5c34)CC2)cc1 |
|  |  |  | 0.72 | 0.32 | COc1ccc(S(=O)(=O)N2CCC(NC[C@H](O)COc3cccc4[nH]c(O)nc34)CC2)cc1 |
|  | > 100000 | > 100000 | 1.2 | 0.14 | COc1ccc(S(=O)(=O)N2CCC(NC[C@H](O)COc3cccc4[nH]c5ccccc5c34)CC2)cc1OC |
| 360 |  |  | 0.79 |  | CCCCOc1ccc(S(=O)(=O)N2CCC(NC[C@H](O)c3ccc(O)c(NS(C)(=O)=O)c3)C2)cc1 (stereo not given in full) |
| 920 |  |  | 1 |  | CCC(C)(C)c1ccc(S(=O)(=O)N2CCC(NC[C@H](O)COc3cccc4[nH]c5ccccc5c34)CC2)cc1 |
|  | > 100000 | > 100000 | 0.74 | 0.04 | CCCCOc1ccc(S(=O)(=O)N2CCC(NC[C@H](O)COc3cccc4[nH]c5ccccc5c34)CC2)cc1 |
| > 2000 |  |  |  |  | CCCCOc1ccc(S(=O)(=O)N2CC(NC[C@H](O)COc3cccc4[nH]c5ccccc5c34)C2)cc1 |
| 70 |  |  |  |  | O=c1[nH]c2cccc(OC[C@@H](O)CNC3CCN(S(=O)(=O)c4ccc5oc6ccccc6c5c4)CC3)c2[nH]1 |
| > 2000 |  |  |  |  | CCCCOc1ccc(S(=O)(=O)N2CCC(NC[C@H](O)COc3ccc(O)cc3)CC2)cc1 |
